From article PMC6934681, “Small molecule allosteric uncoupling of microtubule depolymerase activity from motility in human Kinesin-5 during mitotic spindle assembly” (Scientific Reports, 2019)

Biological target: T1, Eg5 (human Kinesin-5) (Homo sapiens, UniProt P52732)
T1 construct: gene KIF11; motor domain (residues 1–369); with microtubules (bovine brain tubulin)
T1 sequence (P52732 1-369): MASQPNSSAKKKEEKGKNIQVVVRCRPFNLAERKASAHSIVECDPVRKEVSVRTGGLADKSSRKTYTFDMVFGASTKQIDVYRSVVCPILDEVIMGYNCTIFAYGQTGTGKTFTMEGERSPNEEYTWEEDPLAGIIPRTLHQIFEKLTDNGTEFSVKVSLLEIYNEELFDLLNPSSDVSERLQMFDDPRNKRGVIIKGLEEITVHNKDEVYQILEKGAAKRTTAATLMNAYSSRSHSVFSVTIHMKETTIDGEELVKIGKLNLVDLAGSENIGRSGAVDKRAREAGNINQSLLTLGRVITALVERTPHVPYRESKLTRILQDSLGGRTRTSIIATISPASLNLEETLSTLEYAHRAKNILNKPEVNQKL
Test: microtubule depolymerization turbidity assay with purified Eg5 motor domain, single concentration […] AMPPNP
Type: biochemical

In the case of `Nc1ncnc2c1ncn2[C@@H]1O[C@H](CO[P@](=O)(O)O[P@](=O)(O)NP(=O)(O)O)[C@@H](O)[C@H]1O` [AMP, AMPPNP], the “microtubule depolymerization turbidity assay with purified Eg5 motor domain, sin” value is reported as “treatment with excess orthosteric inhibitor, AMPPNP, completely inhibited its microtubule depolymerization ability”.
